Data on 10 compounds can be found in the SangsterLogP compilation.

The nature of this data set: method code G-GLC, from Larsen, B. R., Skejo-Andreasen, H., & Pérez, A. P. (1992). Octanol-water partition coefficients of 39 polychlorinated biphenyls in an Askarel mixture. Fresenius Envir. Bull. I (Supplementum), S13-18.

For `Clc1cc(Cl)c(-c2c(Cl)ccc(Cl)c2Cl)c(Cl)c1Cl`, the logP is 6.76. Regarding `Clc1ccc(-c2cccc(Cl)c2Cl)cc1`, the logP was found to be 5.63. Turning to `Clc1ccc(-c2ccc(Cl)c(Cl)c2Cl)c(Cl)c1Cl`, the logP was 6.62. With `Clc1ccc(Cl)c(-c2c(Cl)c(Cl)cc(Cl)c2Cl)c1`, the logP is 6.45. Regarding `Clc1ccc(Cl)c(-c2c(Cl)ccc(Cl)c2Cl)c1`, the lipophilicity (logP) turned out to be 6.08.

Turning to `Clc1ccc(Cl)c(-c2ccc(Cl)c(Cl)c2)c1`, the logP was found to be 5.99. Then `Clc1cc(Cl)c(-c2cccc(Cl)c2Cl)cc1Cl`, with 6.28; and `Clc1ccc(-c2ccc(Cl)c(Cl)c2Cl)cc1`, with 5.95. For `Clc1ccc(-c2c(Cl)ccc(Cl)c2Cl)cc1Cl`, the logP worked out at 6.22. The same measure for `Clc1ccc(Cl)c(-c2cc(Cl)ccc2Cl)c1`: 5.81.
